Reference: patent US20250345383A1, “INTRANASAL ADMINISTRATION OF POLYSULFIDE” (The General Hospital Corporation, priority 2022, published 2025)

What was measured:
[1] = system: primary cortical neurons; assay: Relative sulfane sulfur levels in primary cortical neurons (SSip-1 DA); assay type: cell-based, mouse; conditions: incubation at 10 μM for 20 minutes; relative to untreated neurons
Protocol: (§1) Primary cortical neurons were isolated from the cerebral cortices of C57BL/6J mice of both sexes at embryonic day 15, as previously described 39. Primary cortical neurons were maintained at 37° C. in a humidified tissue culture chamber with 5% CO2 and cells were used on day 11 after harvest.
Primary cortical neurons or SH-SY5Y cells, a human neuroblastoma cell line (American Type Culture Collection, Manassas, VA, USA), were incubated with SSip-1 DA […] at 37° C. for 20 minutes in the dark. Cells were washed with pre-warmed HBSS containing calcium and magnesium (Thermo Fisher Scientific, Waltham, MA, USA) and then cells were incubated with GSSSG, sodium trisulfide (Na2S3; Dojindo Molecular Technologies, Inc., Rockville, MD, USA), PTN-SSS, or vehicle alone for 20 minutes at 37° C. in the dark. Fluorescence intensities were measured using a microplate reader.

[2] = system: ventral horn of lumbar spinal cord; assay: Histology of lumbar spinal cord 48 hours after SCI (Nissl, Iba-1, cleaved caspase-3); assay type: in vivo, mouse
Protocol: The lumbar enlargement of the spinal cord was removed 48 hours after surgery and sectioned to […] thickness using a cryotome (CM1850UV; Leica Biosystems, Heidelberger, Germany). Nissl staining was conducted using the Nissl stain kit (VitroVivo Biotech, Rockville, MD, USA) according to the protocol recommended by the manufacturer. Immunohistochemical staining for ionized calcium-binding adaptor molecule 1 (Iba-1) and cleaved caspase-3 was performed as previously described^6,15. The stained sections were examined using an epifluorescence microscope (Nikon Eclipse 80i; Nikon Instruments, Inc., Melville, NY, USA).
The number of stained cells was counted in one field (0.26 mm^2) under high magnification (200×) in 3 different sections of spinal cord from each mouse by an investigator who was blinded to the identity of the samples. The average number of stained cells was calculated for each mouse. For quantitative analysis of Iba-1 staining, the Iba-1-positive area per one field (0.26 mm^2) under high magnification (200×) in 3 different ventral horn sections for each mouse was calculated using the ImageJ image-processing program (National Institutes of Health, Bethesda, MD, USA). The mean area of Iba-1 staining in the spinal cords of mice in the sham procedure group was set to 1 and the relative amount of Iba-1 staining was determined for each experimental group of mice. Each group included 5 mice.

[3] = system: mice subjected to SCI; assay: Mouse model of spinal cord ischemia (SCI): delayed paraplegia, hindlimb motor function by Basso mouse scale (BMS); assay type: in vivo
From the text: Adult C57BL/6J mice (12-18 weeks old) of both sexes were purchased from Jackson Laboratory (Bar Harbor, ME, USA). Both male and female mice were used in experiments to investigate the neuroprotective effect of GSSSG on motor function after SCI. […] All mice were housed in a temperature and humidity-controlled room in the animal center with a 12-hour light/dark cycle, and were provided with food and water ab libitum. To permit access by mice that were recovering from surgery, additional food pellets were inserted into hydrated gel placed on the bedding. A randomized paired design was used to minimize the variability between each treatment group. Mice were paired based on weight, age, delivery dates, and when possible, holding cages. After the pairing, mice were randomly assigned to different treatments.
The surgical procedures to produce delayed paraplegia in mice were performed as previously described^6 (FIG. 2A). Mice were anesthetized with 5% isoflurane in 100% O2 and tracheally intubated with a 20-gauge catheter (Angiocath; Becton Dickinson, Franklin Lakes, NJ, USA). […] The paravertebral muscle temperature was measured using a T-type implantable thermocouple probe (IT-18) and a T-type pod (ADInstruments, Colorado Springs, CO, USA). […] A median sternotomy extended from the apex of the manubrium to the second rib. The aortic arch was gently isolated between the left common carotid artery (LCCA) and the left subclavian artery (LSA), avoiding the vagus nerve and the left recurrent laryngeal nerve. […] After ischemia, the clips were removed in reverse order. Incisions were closed in layers and mechanical ventilation was discontinued. After stable spontaneous respiration was confirmed, mice were extubated.
The previously described surgical procedures^6 were modified as follows. The respiratory rate during the procedure was increased to 230 breaths/minute, because hyperventilation promotes the occurrence of delayed paraplegia caused by spinal cord ischemia^33. A laser Doppler perfusion monitor (moorVMS-LDF1; Moor Instruments, Millwey, UK) was used to monitor the femoral artery blood flow^28,29. […] To improve the accuracy of surgical procedures, a microscope (Leica MZ95; Leica Microsystems, Buffalo Grove, IL, USA) was used to isolate the aortic arch and place the clips.
Study drugs were administered intranasally using a single-channel pipettor. Mice were anesthetized with 3% isoflurane using a non-rebreathing circuit with a mouse nose cone (VetEquip, Inc., Livermore, CA, USA). While the drugs were administered, the nose cone was removed and mice were allowed to breathe air. Approximately 6 μL of each drug was administered into the mouse's nostrils and the mouse inhaled the droplets during inspiration. […]

[4] = system: MPTP-treated mice; assay: MPTP-induced Parkinson's disease model in mice (tyrosine hydroxylase immunoblot); assay type: in vivo, mouse; conditions: GSSSG 50 mg/kg intranasal on day 0 and every 12 hours days 1-6; harvested 7 days after MPTP
Protocol: Intermittent H2S Inhalation—Sulfide Pre-Conditioning (SPC) We previously reported that breathing H2S at 80 ppm markedly increases plasma and brain levels of H2S and thiosulfate, an oxidative product of H2S.^50,51 Male C57BL6/J mice breathed air alone and air mixed with 80 ppm H2S (Airgas Inc., Radnor, PA) for 4 h each day for 5 consecutive days in custom-made plastic chambers. The H2S breathing session was performed from 8 AM until 12 PM from Day 1 through Day 5 as previously described^51 (FIG. 1). H2S concentration, as well as FiO2, was continuously measured using a portable gas monitor (VENTIS MX4 Multi-Gas Monitor, Industrial Scientific Corporation, Oakdale. PA).
Male C57BL6/J and CD-1 mice received four intraperitoneal injections of MPTP (20 mg/kg) or saline every 2 h for a total of four doses of MPTP (total, 80 mg/kg) or equivalent amount of saline, as previously described 3. […] Then, tyrosine hydroxylase protein levels were detected by immunoblotting.
To determine the effects of polysulfide on the loss of tyrosine hydroxylase in the substantia nigra and striatum in mice treated with MPTP, we administered GSSSG (50 mg/kg) or saline via intranasal route immediately after the first and the third injection of MPTP on Day 0. […] Then, tyrosine hydroxylase protein levels were detected by immunoblotting.

[5] = system: murine primary cortical neurons; assay: Cell viability of murine primary cortical neurons incubated with MPP+ (crystal violet assay); assay type: cell-based, mouse; conditions: MPP+ 50 μM, 24 hours
Protocol: Cell viability assays was performed to examine cell viabilities of SH-SY5Y cells or murine primary cortical neurons 24 h after the addition of MPP^+ (5 mM for SH-SY5Y, 50 μM for primary cortical neurons) with vehicle (PBS), Na2S (Sigma-Aldrich), Na2S3 (Dojindo Molecular Technologies, Inc), GSSSG (Glutathione trisulfide, Kyowa Hakko Bio Co., Ltd., Tokyo, Japan), LA (α-Lipoic acid, Sigma-Aldrich) or LASSS (α-Lipoic acid trisulfide, Kyowa Hakko Bio Co., Ltd., Tokyo, Japan). Cell viability was measured using the crystal violet assay.

[6] = system: primary cortical neurons; assay: Cell viability after oxygen and glucose deprivation/reoxygenation (OGD/R), primary cortical neurons; assay type: cell-based, mouse
Protocol: as §1, with “harvest. […] After reoxygenation, cell viability and cell injury were assessed using crystal violet and lactate dehydrogenase (LDH) assays, as previously described^39.” for “harvest.”

[7] = system: CCL2, CXCL1, IL-1β, IL-6, TNF-α, Bcl-2, Bcl-XL, SQOR and other sulfide-metabolizing enzymes mRNA; assay: mRNA levels in lumbar spinal cords 48 hours after surgery (quantitative real-time PCR); assay type: in vivo, mouse; conditions: intranasal GSSSG after SCI
Protocol: Messenger RNA (mRNA) levels were measured as previously described^15 using lumbar spinal cords at 48 hours after surgery. The mRNA levels of C-C motif chemokine 2 (CCL2), C-X-C motif chemokine ligand 1 (CXCL1), interleukin (IL)-1β, IL-6, tumor necrosis factor (TNF)-α, B-cell lymphoma 2 (Bcl-2), B-cell lymphoma-extra large (Bcl-XL), cystathionine beta synthase, cystathionine gamma lyase, 3-mercaptopyruvate sulfurtransferase, sulfide:quinone oxidoreductase (SQOR), ethylmaronic encephalopathy 1, thiosulfate sulfurtransferase, sulfite oxidase, cysteinyl-tRNA synthetase 1, and cysteinyl-tRNA synthetase 2 were standardized to the level of 18S ribosomal RNA using quantitative real-time polymerase chain reaction (7500 Fast Real-Time PCR System, Thermo Fisher Scientific, Waltham, MA, USA).

## N[C@@H](CCC(=O)N[C@@H](CSSSC[C@H](NC(=O)CC[C@H](N)C(=O)O)C(=O)NCC(=O)O)C(=O)NCC(=O)O)C(=O)O [GSSSG, glutathione trisulfide]
[1]
  levels of intracellular sulfane sulfur in primary cortical neurons: increased levels of intracellular sulfane sulfur
[2]; intranasal GSSSG
  number of cleaved caspase-3-positive neurons in lumbar spinal cord: prevented the SCI-induced increase
[2]; intranasal GSSSG at 0, 8, 23, 32 hours, vs vehicle alone
  number of viable neurons (Nissl stain) in ventral horns of lumbar spinal cord: significant increase in the number of viable neurons
[2]; intranasal GSSSG, vs vehicle alone
  Iba-1-positive staining (microglial activation) in lumbar spinal cord: significant reduction in staining for Iba-1
[3]; GSSSG vs GSSG comparison, n=6 per group, intranasal GSSSG 50 mg/kg, GSSG 53 mg/kg
  male mice rescued from delayed paraplegia: 83%
[3]; male mice, n=11 per group, intranasal at 0, 8, 23, 32 hours after surgery, GSSSG 50 mg/kg, GSH 45.2 mg/kg
  mice in which development of delayed paraplegia was prevented: 73%
[4]
  tyrosine hydroxylase in the nigrostriatal region: prevented the MPTP-induced decrease in tyrosine hydroxylase
[5]
  protection of murine primary cortical neurons from the effects of MPP+ treatment: protected
[6]; GSSSG 100 μM
  cell survival after OGD/R: failed to improve cell survival
[6]; GSSSG at 30 μM or 60 μM, vs vehicle-only treated cells
  release of LDH after OGD/R: decreased release of LDH
[6]; GSSSG at 30 μM, GSH at 60 μM, GSSG at 30 μM, vs vehicle-only treated cells
  cell viability after OGD/R, crystal violet assay (GSSSG, GSH, GSSG comparison): improved cell viability
[6]; GSSSG at 30 μM, vs vehicle-only treated cells
  cell viability after OGD/R, crystal violet assay: increased cell viability
[7]
  mRNA encoding SQOR in lumbar spinal cord: decreased the level of mRNA encoding SQOR
  mRNA encoding pro-inflammatory cytokines in lumbar spinal cord: attenuated the upregulation
  mRNA levels encoding other enzymes that synthesize or metabolize sulfides or persulfides: no effect
  mRNA levels of anti-apoptotic genes Bcl-2 and Bcl-XL, vehicle alone vs GSSSG: no significant difference
